For test [1], the target named is T1, Arabidopsis HPPD (Seq ID: 42) (Arabidopsis thaliana, UniProt P93836).
T1 construct: His6; made in house; host or cells: E. coli BL21 (DE3)
T1 sequence (P93836 1-445): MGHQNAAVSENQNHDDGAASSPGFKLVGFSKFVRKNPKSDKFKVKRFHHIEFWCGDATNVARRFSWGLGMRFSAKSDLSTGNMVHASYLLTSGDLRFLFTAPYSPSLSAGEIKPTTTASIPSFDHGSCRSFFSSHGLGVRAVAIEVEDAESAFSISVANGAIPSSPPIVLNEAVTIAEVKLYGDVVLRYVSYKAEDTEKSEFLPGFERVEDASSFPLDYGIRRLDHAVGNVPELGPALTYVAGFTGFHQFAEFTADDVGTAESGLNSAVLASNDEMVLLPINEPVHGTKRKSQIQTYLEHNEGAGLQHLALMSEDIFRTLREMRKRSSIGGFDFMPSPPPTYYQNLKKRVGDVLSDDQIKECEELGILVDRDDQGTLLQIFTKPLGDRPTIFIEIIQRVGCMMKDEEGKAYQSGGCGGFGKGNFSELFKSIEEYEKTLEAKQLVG
Nature of the test: In vitro HPPD activity assay (homogentisic acid by HPLC). The conditions noted are these: benchmark enzyme; normalized on Arabidopsis wild-type HPPD. The class given is biochemical. As to the method: (§1) HPPD produces homogentisic acid and CO2 from 4-hydroxyphenylpyruvate (4-HPP) and O2. The activity assay for HPPD is based on the analysis of homogentisic acid by reversed phase HPLC.
(§2) The assay mixture can contain 150 mM potassium phosphate buffer pH 7.0, 50 mM L-ascorbic acid, 100 μM Catalase (Sigma-Aldrich), 1 μM FeSO4 and 0.2 units of purified mutated HPPD enzyme in a total volume of 505 μl. 1 unit is defined as the amount of enzyme that is required to produce 1 nmol of HGA per minute at 20° C.
(§3) After a preincubation of 30 min the reaction is started by adding 4-HPP to a final concentration of 0.05 mM. The reaction is allowed to proceed for 45 min at room temperature. The reaction is stopped by the addition of 50 μl of 4.5 M phosphoric acid. The sample is filtered using a […] pore size PVDF filtration device.
(§4) 5 μl of the cleared sample is analyzed on an UPLC HSS T3 column (particle size 1.8 μm, dimensions 2.1×50 mm; Waters) by isocratic elution using 90% 20 mM NaH2PO4 pH 2.2, 10% methanol (v/v).
(§5) HGA is detected electrochemically at 750 mV (mode: DC; polarity: positive) and quantified by integrating peak areas (Empower software; Waters).
Inhibitors are dissolved in DMSO (dimethylsulfoxide) to a concentration of 0.5 mM. From this stock solution serial five-fold dilutions are prepared in DMSO, which are used in the assay. The respective inhibitor solution accounts for 1% of the assay volume. […] Activities are normalized by setting the uninhibited enzyme activity to 100%. IC50 values are calculated using non-linear regression.
Using methods which are described in the above examples or well known in the art, purified, recombinant mutated HPPD enzymes are characterized with respect to their kinetic properties and sensitivity towards HPPD inhibiting herbicides. Apparent michaelis constants (Km) and maximal reaction velocities (Vmax) are calculated by non-linear regression with the software GraphPad Prism 5 (GraphPad Software, La Jolla, USA) using a substrate inhibition model. […] Weighted means (by standard error) of Km and IC50 values are calculated from at least three independent experiments.
(§6) Field performance of the HPPD enzyme, which is used as a herbicide tolerance trait may depend not only on its lack of sensitivity towards HPPD inhibiting herbicides but also on its activity. To assess the potential performance of a herbicide tolerance trait a tolerance index (TI) is calculated using the following formula: […]
(§7) Easy comparison and ranking of each trait is enabled by normalizing tolerance indexes on Arabidopsis wild-type HPPD.

Test [2] deals with Scenedesmus Short HPPD (Seq ID: 4) (Tetradesmus obliquus, UniProt A0A383WMN4, DEL398-433/N195D). Nature of the test: In vitro HPPD activity assay. The class given is biochemical. The conditions noted are these: normalized on Arabidopsis wild-type HPPD (SEQ ID NO:42). The method, then: as §1, §2, §3, §4, §5
Sequence of Scenedesmus Short HPPD (Seq ID: 4) (A0A383WMN4 entry or part of it N195D/DEL398-433): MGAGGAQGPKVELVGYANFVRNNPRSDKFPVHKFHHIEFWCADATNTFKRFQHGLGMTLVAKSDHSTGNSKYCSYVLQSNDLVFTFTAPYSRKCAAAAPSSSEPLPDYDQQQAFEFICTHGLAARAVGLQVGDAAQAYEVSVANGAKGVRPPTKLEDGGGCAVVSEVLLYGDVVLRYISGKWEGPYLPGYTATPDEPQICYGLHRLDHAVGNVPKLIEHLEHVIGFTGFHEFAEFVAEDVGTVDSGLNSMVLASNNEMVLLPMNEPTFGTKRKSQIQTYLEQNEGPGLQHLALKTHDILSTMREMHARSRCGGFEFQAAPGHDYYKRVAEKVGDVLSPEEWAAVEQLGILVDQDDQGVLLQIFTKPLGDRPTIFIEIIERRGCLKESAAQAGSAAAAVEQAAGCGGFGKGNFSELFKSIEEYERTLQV
(§8) Inhibitors are dissolved in DMSO (dimethylsulfoxide) to a concentration of 0.5 mM. From this stock solution serial five-fold dilutions are prepared in DMSO, which are used in the assay. The respective inhibitor solution accounts for 1% of the assay volume. Thus, final inhibitor concentrations range from 5 μM to 320 pM, respectively. Activities are normalized by setting the uninhibited enzyme activity to 100%. IC50 values are calculated using non-linear regression.
(§9) Using methods which are described in the above examples or well known in the art, purified, recombinant mutated HPPD enzymes are characterized with respect to their kinetic properties and sensitivity towards HPPD inhibiting herbicides. Apparent michaelis constants (Km) and maximal reaction velocities (Vmax) are calculated by non-linear regression with the software GraphPad Prism 5 (GraphPad Software, La Jolla, USA) using a substrate inhibition model. Apparent kcat values are calculated from Vmax assuming 100% purity of the enzyme preparation. Weighted means (by standard error) of Km and IC50 values are calculated from at least three independent experiments. The Cheng-Prusoff equation for competitive inhibition (Cheng, Y. C.; Prusoff, W. H. Biochem Pharmacol 1973, 22, 3099-3108) is used to calculate dissociation constants (Ki).
as §6, §7

Test [3] has as its target Scenedesmus HPPD (Seq ID: 2) (Tetradesmus obliquus, UniProt A0A383WMN4, N195D). Briefly: In vitro HPPD activity assay. The class given is biochemical. The conditions noted are these: normalized on Arabidopsis wild-type HPPD (SEQ ID NO:42). The method, then: as §1, §2, §3, §4, §5, §8, §9, §6, §7
A further test deals with SoHPPD L367V, I375L. Nature of the test: In vitro HPPD activity assay. The format is biochemical, Scenedesmus obliquus. The conditions noted are these: normalized on Arabidopsis wild-type HPPD (SEQ ID NO:42). As to the method: as §1, §2, §3, §4, §5, §8, §9, §6, §7
Test [4] relates to SoHPPD L367V, I375L (short). Nature of the test: In vitro HPPD activity assay. The class given is biochemical, Scenedesmus obliquus. The conditions noted are these: normalized on Arabidopsis wild-type HPPD (SEQ ID NO:42). As to the method:
as §1, §2, §3, §4, §5, §8, §9, §6, §7

In the next test the test system is SoHPPD A318R, L350M. Briefly: In vitro HPPD activity assay. The format is biochemical, Scenedesmus obliquus. The conditions noted are these: normalized on Arabidopsis wild-type HPPD (SEQ ID NO:42). The method, then:
as §1, §2, §3, §4, §5, §8, §9, §6, §7

For a further test, the system named is SoHPPD E345Q (short). Briefly: In vitro HPPD activity assay. The class given is biochemical, Scenedesmus obliquus. The conditions noted are these: normalized on Arabidopsis wild-type HPPD (SEQ ID NO:42). The method, then: as §1, §2, §3, §4, §5, §8, §9, §6, §7
In another test the test system is SoHPPD F363I (short). Nature of the test: In vitro HPPD activity assay. The conditions noted are these: normalized on Arabidopsis wild-type HPPD (SEQ ID NO:42). The class given is biochemical, Scenedesmus obliquus. As to the method: as §1, §2, §3, §4, §5, §8, §9, §6, §7
The next test deals with SoHPPD Q317H (short). Nature of the test: In vitro HPPD activity assay. The class given is biochemical, Scenedesmus obliquus. The conditions noted are these: normalized on Arabidopsis wild-type HPPD (SEQ ID NO:42). As to the method:
as §1, §2, §3, §4, §5, §8, §9, §6, §7

The test system of a further test is SoHPPD I455V. Nature of the test: In vitro HPPD activity assay. The format is biochemical, Scenedesmus obliquus. The conditions noted are these: normalized on Arabidopsis wild-type HPPD (SEQ ID NO:42). The method, then: as §1, §2, §3, §4, §5, §8, §9, §6, §7
Test [5] deals with SoHPPD Q317H, A318G, E345Q (short). Briefly: In vitro HPPD activity assay. The class given is biochemical, Scenedesmus obliquus. The conditions noted are these: normalized on Arabidopsis wild-type HPPD (SEQ ID NO:42). As to the method: as §1, §2, §3, §4, §5, §8, §9, §6, §7
For another test, the system named is SoHPPD E379Q (short). Briefly: In vitro HPPD activity assay. The format is biochemical, Scenedesmus obliquus. The conditions noted are these: normalized on Arabidopsis wild-type HPPD (SEQ ID NO:42). The method, then: as §1, §2, §3, §4, §5, §8, §9, §6, §7
Test [6] has as its system SoHPPD Q317H, A318G, E345Q. Nature of the test: In vitro HPPD activity assay. The conditions noted are these: normalized on Arabidopsis wild-type HPPD (SEQ ID NO:42). The format is biochemical, Scenedesmus obliquus. The method, then:
as §1, §2, §3, §4, §5, §8, §9, §6, §7

In a further test the test system is SoHPPD H306K (short). Nature of the test: In vitro HPPD activity assay. The conditions noted are these: normalized on Arabidopsis wild-type HPPD (SEQ ID NO:42). The class given is biochemical, Scenedesmus obliquus. As to the method:
as §1, §2, §3, §4, §5, §8, §9, §6, §7

The test system of test [7] is SoHPPD A318P, A319P (short). Nature of the test: In vitro HPPD activity assay. The format is biochemical, Scenedesmus obliquus. The conditions noted are these: normalized on Arabidopsis wild-type HPPD (SEQ ID NO:42). As to the method:
as §1, §2, §3, §4, §5, §8, §9, §6, §7

The test system of test [8] is SoHPPD K326E, E345Q (short). Nature of the test: In vitro HPPD activity assay. The format is biochemical, Scenedesmus obliquus. The conditions noted are these: normalized on Arabidopsis wild-type HPPD (SEQ ID NO:42). The method, then: as §1, §2, §3, §4, §5, §8, §9, §6, §7
The next test deals with SoHPPD Q317H. Nature of the test: In vitro HPPD activity assay. The format is biochemical, Scenedesmus obliquus. The conditions noted are these: normalized on Arabidopsis wild-type HPPD (SEQ ID NO:42). The method, then:
as §1, §2, §3, §4, §5, §8, §9, §6, §7

The next test has as its system SoHPPD I419V (short). Nature of the test: In vitro HPPD activity assay. The class given is biochemical, Scenedesmus obliquus. The conditions noted are these: normalized on Arabidopsis wild-type HPPD (SEQ ID NO:42). As to the method:
as §1, §2, §3, §4, §5, §8, §9, §6, §7

The test system of test [9] is SoHPPD A318R, L350M (short). Briefly: In vitro HPPD activity assay. The conditions noted are these: normalized on Arabidopsis wild-type HPPD (SEQ ID NO:42). The format is biochemical, Scenedesmus obliquus. The method, then: as §1, §2, §3, §4, §5, §8, §9, §6, §7
For another test, the system named is SoHPPD Q317M (short). Briefly: In vitro HPPD activity assay. The format is biochemical, Scenedesmus obliquus. The conditions noted are these: normalized on Arabidopsis wild-type HPPD (SEQ ID NO:42). The method, then: as §1, §2, §3, §4, §5, §8, §9, §6, §7
For the next test, the system named is SoHPPD V251A (short). Briefly: In vitro HPPD activity assay. The conditions noted are these: normalized on Arabidopsis wild-type HPPD (SEQ ID NO:42). The class given is biochemical, Scenedesmus obliquus. As to the method:
as §1, §2, §3, §4, §5, §8, §9, §6, §7

The next test deals with SoHPPD F363I. Nature of the test: In vitro HPPD activity assay. The format is biochemical, Scenedesmus obliquus. The conditions noted are these: normalized on Arabidopsis wild-type HPPD (SEQ ID NO:42). The method, then: as §1, §2, §3, §4, §5, §8, §9, §6, §7
In test [10] the test system is SoHPPD F39W, L367V, I375L (short). Nature of the test: In vitro HPPD activity assay. The class given is biochemical, Scenedesmus obliquus. The conditions noted are these: normalized on Arabidopsis wild-type HPPD (SEQ ID NO:42). As to the method: as §1, §2, §3, §4, §5, §8, §9, §6, §7

Entries after “also recorded” stand apart in the source; their conditions may differ.

Sequence of Scenedesmus HPPD (Seq ID: 2) (A0A383WMN4 entry or part of it N195D): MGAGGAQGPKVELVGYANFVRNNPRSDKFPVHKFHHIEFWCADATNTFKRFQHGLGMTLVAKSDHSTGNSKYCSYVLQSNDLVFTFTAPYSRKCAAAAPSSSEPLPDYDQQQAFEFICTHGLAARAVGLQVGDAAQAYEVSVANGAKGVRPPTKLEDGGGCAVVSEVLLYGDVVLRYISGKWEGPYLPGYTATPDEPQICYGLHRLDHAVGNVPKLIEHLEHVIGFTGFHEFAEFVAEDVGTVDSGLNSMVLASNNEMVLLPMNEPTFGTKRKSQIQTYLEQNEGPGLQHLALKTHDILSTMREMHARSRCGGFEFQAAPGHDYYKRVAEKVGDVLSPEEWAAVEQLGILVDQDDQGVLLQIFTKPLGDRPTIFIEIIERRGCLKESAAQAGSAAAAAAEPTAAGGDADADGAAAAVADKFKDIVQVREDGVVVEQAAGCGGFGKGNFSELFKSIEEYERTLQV

Regarding `CC[S+]([O-])c1c(Cl)cc(F)c(C(=O)Nc2nnnn2C)c1Cl` (centres unmarked) [Inhibitor 9, 2,4-dichloro-3-ethylsulfinyl-6-fluoro-N-(1-methyltetrazol-5-yl)benzamide], the “TI (normalized tolerance index)” value in [1] came to 1.0; in [2], 1.2; in test [3] it was 0.1; with SoHPPD L367V, I375L, 0.1; in test [4], 0.4; in the test on SoHPPD A318R, L350M, 0.2. Further, the “TI (normalized tolerance index)” value was 0.2 in the test with SoHPPD E345Q (short); “not inhibited; also recorded: no inhi-” in the test with SoHPPD F363I (short); 0.7 in the test with SoHPPD Q317H (short); 0.4 in the test on SoHPPD I455V; 0.9 in [5]; 0.2 with SoHPPD E379Q (short). For the same compound, the “TI (normalized tolerance index)” value is 0.1 in test [6]; 0.2 with SoHPPD H306K (short); 0.7 in [7]; 0.1 in test [8]; 0.1 with SoHPPD Q317H; 0.3 in the test on SoHPPD I419V (short). For the same compound, the “TI (normalized tolerance index)” value is on record as 1.2 in [9]; 1.1 with SoHPPD Q317M (short); 0.1 with SoHPPD V251A (short); 2,7 in the test on SoHPPD F363I; 0.2 in test [10].
